Measured values taken from paper PMC4394048 (Molecular cancer therapeutics, 2015).

B1: Oatp1b2 (Rattus norvegicus) (protein)
chain: MDHTQQSRKAAEAQPSRSKQTRFCDGFKLFLAALSFSYICKALGGVVMKSSITQIERRFDIPSSISGLIDGGFEIGNLLVIVFVSYFGSKLHRPKLIGIGCFIMGIGSILTALPHFFMGYYKYAKENDIGSLGNSTLTCFINQMTSPTGPSPEIVEKGCEKGLKSHMWIYVLMGNMLRGIGETPIVPLGISYLDDFAKEGHTSMHLGTLHTIAMIGPILGFIMSSVFAKIYVDVGYVDLNSVRITPNDARWVGAWWLSFIVNGLLCITSSIPFFFLPKIPKRSQEERKNSVSLHAPKTDEEKKHMTNLTKQEEQDPSNMTGFLRSLRSILTNEIYVIFLILTLLQVSGFIGSFTYLFKFIEQQFGRTASQANFLLGIITIPTMATAMFLGGYIVKKFKLTSVGIAKFVFFTSSVAYAFQFLYFPLLCENKPFAGLTLTYDGMNPVDSHIDVPLSYCNSDCSCDKNQWEPICGENGVTYISPCLAGCKSFRGDKKPNNTEFYDCSCISNSGNNSAHLGECPRYKCKTNYYFYIILQVTVSFFTAMGSPSLILILMKSVQPELKSLAMGFHSLIIRALGGILAPIYYGAFIDRTCIKWSVTSCGKRGACRLYNSRLFGFSYLGLNLALKTPPLFLYVVLIYFTKRKYKRNDNKTLENGRQFTDEGNPDSVNKNGYYCVPYDEQSNETPL

Key:
OATP1B3 [1] = molecular target: T1, OATP1B3 (Homo sapiens, UniProt Q9NPD5)
MDR1 = MDR1 (Homo sapiens, UniProt P08183); details: MDCKII-MDR1 versus MDCKII-Co cells over time; 0.1 μM; p < 0.05
OATP1B1/MDR1 = details: MDCKII-OATP1B1/MDR1 versus MDCKII-OATP1B1 cells, p < 0.001
OATP1B3/MDR1 = details: MDCKII-OATP1B3/MDR1 versus MDCKII-OATP1B3 cells, p < 0.01
[2] = cited from earlier work
[3] = Mdr1a/1b−/− mice, intravenous administration; cited from earlier work
OATP1B3 [4] = molecular target: T1, OATP1B3; experiment: in vitro
[5] = Docetaxel distribution in Slco1b2−/− and wild-type mice; details: for mean plasma clearance ± S.D.: dose/AUC
[6] = substrate: CC(=O)O[C@@]12CO[C@@H]1C[C@H](O)[C@@]1(C)C(=O)[C@H](O)C3=C(C)[C@@H](OC(=O)[C@H](O)[C@@H](NC(=O)OC(C)(C)C)c4ccccc4)C[C@@](O)([C@@H](OC(=O)c4ccccc4)[C@H]21)C3(C)C; experiment: cells, lysate or membranes named; details: other: HeLa cells; 0.1-100 μM; Michaelis-Menten fit; 37.0 °C

T1 sequence (Q9NPD5 whole entry): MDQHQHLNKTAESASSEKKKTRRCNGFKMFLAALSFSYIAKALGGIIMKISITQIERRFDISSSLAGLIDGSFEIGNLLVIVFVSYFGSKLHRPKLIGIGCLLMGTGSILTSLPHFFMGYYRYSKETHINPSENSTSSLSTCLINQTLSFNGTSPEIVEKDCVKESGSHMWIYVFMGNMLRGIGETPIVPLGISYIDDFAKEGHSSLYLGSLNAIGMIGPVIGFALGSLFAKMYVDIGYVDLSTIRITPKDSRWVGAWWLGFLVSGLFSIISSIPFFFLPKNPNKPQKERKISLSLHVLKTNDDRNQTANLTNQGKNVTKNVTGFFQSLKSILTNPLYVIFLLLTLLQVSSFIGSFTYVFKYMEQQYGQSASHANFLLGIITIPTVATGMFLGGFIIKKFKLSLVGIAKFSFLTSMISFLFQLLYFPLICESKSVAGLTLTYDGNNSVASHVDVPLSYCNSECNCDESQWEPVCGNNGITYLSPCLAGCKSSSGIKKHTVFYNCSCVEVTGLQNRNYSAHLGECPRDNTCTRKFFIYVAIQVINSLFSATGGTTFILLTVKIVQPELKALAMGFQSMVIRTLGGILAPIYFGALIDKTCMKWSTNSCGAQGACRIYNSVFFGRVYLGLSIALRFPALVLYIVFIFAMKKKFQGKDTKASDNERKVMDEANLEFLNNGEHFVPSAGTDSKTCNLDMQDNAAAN
MDR1, sequence (P08183 whole entry): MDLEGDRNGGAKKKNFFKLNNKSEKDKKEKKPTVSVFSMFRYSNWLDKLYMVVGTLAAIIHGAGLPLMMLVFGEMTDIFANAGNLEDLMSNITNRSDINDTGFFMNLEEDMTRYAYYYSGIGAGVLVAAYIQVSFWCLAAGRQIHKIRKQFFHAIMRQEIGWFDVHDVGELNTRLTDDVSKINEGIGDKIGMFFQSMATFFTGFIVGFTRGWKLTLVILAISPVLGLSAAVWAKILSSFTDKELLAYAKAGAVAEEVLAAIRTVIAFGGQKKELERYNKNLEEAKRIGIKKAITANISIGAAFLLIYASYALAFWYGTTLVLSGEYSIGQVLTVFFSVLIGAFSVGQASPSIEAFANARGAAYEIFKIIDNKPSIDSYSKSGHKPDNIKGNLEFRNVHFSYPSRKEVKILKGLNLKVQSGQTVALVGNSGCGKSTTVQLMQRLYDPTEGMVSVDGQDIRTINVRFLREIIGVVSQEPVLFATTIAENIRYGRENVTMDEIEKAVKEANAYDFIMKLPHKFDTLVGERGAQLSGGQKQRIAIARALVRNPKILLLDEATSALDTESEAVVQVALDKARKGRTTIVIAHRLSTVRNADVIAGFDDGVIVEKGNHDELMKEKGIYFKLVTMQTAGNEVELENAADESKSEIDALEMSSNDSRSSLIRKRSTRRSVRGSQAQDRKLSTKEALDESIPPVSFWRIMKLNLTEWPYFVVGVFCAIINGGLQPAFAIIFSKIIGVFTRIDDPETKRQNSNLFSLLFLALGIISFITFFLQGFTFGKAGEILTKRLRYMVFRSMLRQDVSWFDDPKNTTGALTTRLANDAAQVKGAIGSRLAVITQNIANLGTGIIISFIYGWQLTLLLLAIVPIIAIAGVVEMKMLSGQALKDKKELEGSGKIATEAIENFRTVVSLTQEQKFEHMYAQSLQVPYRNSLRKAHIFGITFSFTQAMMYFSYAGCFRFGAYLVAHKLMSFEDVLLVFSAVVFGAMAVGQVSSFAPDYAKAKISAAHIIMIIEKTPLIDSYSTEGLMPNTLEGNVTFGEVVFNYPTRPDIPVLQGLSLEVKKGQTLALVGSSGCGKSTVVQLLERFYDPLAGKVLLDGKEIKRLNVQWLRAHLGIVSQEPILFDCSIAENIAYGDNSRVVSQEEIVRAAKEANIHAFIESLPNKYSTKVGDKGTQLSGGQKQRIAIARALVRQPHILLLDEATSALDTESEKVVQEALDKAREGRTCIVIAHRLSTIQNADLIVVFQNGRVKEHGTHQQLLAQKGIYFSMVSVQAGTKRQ

Molecule | Vmax (OATP1B3 [1]) [pmol/mg/min] | apical docetaxel accumulation (basal-to-apical) (MDR1) | docetaxel transported into the apical compartment (OATP1B1/MDR1; 0.5h up to 3h, 0.1 μM) | intracellular docetaxel (OATP1B1/MDR1; all time points) | docetaxel transported into the apical compartment (OATP1B3/MDR1; 0.5h up to 3h, 0.1 μM) | intracellular docetaxel (OATP1B3/MDR1; all time points) | increase in docetaxel clearance ([2]; CYP3A4*1B and CYP3A5*1A alleles (CYP3A4/5*2 haplotype)) [%] | docetaxel excreted in bile ([2]; humans) | docetaxel excreted in urine ([2]; humans) | difference in drug clearance amongst patients ([2]; patients receiving the same treatment regimens) | increase in odds of developing grade 4 neutropenia ([2]; with a 50% decrease in docetaxel clearance) | AUC of docetaxel in knockout versus wild-type mice [3] | Km (OATP1B3 [4]) [µM] | plasma clearance in Slco1b2−/− mice, lower than wild-type mice ([5]; 1 mg/kg intravenous, p < 0.05) [%] | mean plasma clearance ± S.D. ([5]; Slco1b2−/− mice, 1 mg/kg intravenous) [mL/h/kg] | docetaxel liver concentrations ([5]; Slco1b2−/− versus wild-type mice, 30 min after 1 mg/kg intravenous) | mean plasma clearance ± S.D. ([5]; wild-type mice, 1 mg/kg intravenous) [mL/h] | Km [6] [µM] | Vmax [6] [pmol/mg/min]
CC(=O)O[C@@]12CO[C@@H]1C[C@H](O)[C@@]1(C)C(=O)[C@H](O)C3=C(C)[C@@H](OC(=O)[C@H](O)[C@@H](NC(=O)OC(C)(C)C)c4ccccc4)C[C@@](O)([C@@H](OC(=O)c4ccccc4)[C@H]21)C3(C)C [docetaxel] | 480 ± 90 | significantly higher | significantly higher | significantly lower | significantly higher | significantly lower | 64 | ~ 75% | ~ 5% | up to 10 fold | more than 4 fold | similar | 14 ± 6.5 | 83 | 73 ± 35 | no significant difference | 473 ± 124 | – | –
B1 | – | – | – | – | – | – | – | – | – | – | – | – | – | – | – | – | – | 20.8 ± 7.4 | 1548 ± 186
